The values that follow come from patent US12540139B2, “Imidazopiperazine inhibitors of transcription activating proteins” (Board of Regents, The University of Texas System, priority 2020, dated 2026).

A short description of series [1]: Metabolic stability in human liver microsomes. The format is in vitro ADME. The note with it: pH 7.4; human liver microsomes 0.5 mg/mL, NADPH, 45 minutes, 37° C.; read-out: Half-life in liver microsomes (t1/2), Human. The procedure:
(§1) Microsomal stability. Microsomal stability assays were conducted on a Beckmann Biomek FXp laboratory automation system. The liver microsomal incubation mixture consisted of liver microsomes (0.5 mg microsomal protein/mL), the Compound (1 μM), MgCl2 (3 mM), and EDTA (1 mM) in potassium phosphate buffer (100 mM, pH 7.4). Midazolam and Ketanserin were used as the assay control substrates. The reaction was initiated with the addition of an NADPH regeneration solution (1.3 mM NADPH) and maintained at 37° C. with shaking. At five time points ranging from 0 to 45 min, aliquots (50 μL) were removed and quenched with acetonitrile (100 μL) containing an internal standard (imipramine). After vortex and centrifugation, samples were analyzed by LC-MS/MS. Calculation of the in vitro half-lives and clearance followed literature guidelines.

The nature of series [2]: In vivo pharmacokinetics after a single dose, mouse. To be noted: female CD-1 mice, single dose 0.2 or 0.3 mg/kg IV; for Vd: read-out: Vss. The procedure: (§2) IV (intravenous) doses were formulated in 20% DMSO+60% PEG400+20% water. PO (per os) doses were formulated in 0.5% methylcellulose in water.
Mouse: Female mice (CD1 strain, purchased from Shanghai JH Laboratory Animal Co. LTD) weighing 20-30 g were used for studies. Food and water were available to all animals ad libitum. The test article was dosed via tail vein (IV doses) or oral gavage (PO doses), respectively. Blood samples were collected from all animals at predose and at 0.083, 0.25, 0.5, 1, 2, 4, 8, and 24 h postdose into tubes containing the anticoagulant K2EDTA (3 animals per time point with 3 time points collected per animal). Plasma was separated from the blood by centrifugation at 4° C. and stored at −70° C. until analysis. Test article concentrations in plasma were quantified using a liquid chromatography with tandem mass spectrometry (LC-MS/MS) method.

The nature of series [3]: Metabolic stability in mouse liver microsomes. The format is in vitro ADME. To be noted: pH 7.4; CD-1 mouse liver microsomes 0.5 mg/mL, NADPH, 45 minutes, 37° C.; read-out: Half-life in liver microsomes (t1/2), Mouse. As to the method: as §1
Series [4] is described as follows: Metabolic stability in rat liver microsomes. The series is classed as in vitro ADME. The note with it: pH 7.4; Sprague Dawley rat liver microsomes 0.5 mg/mL, NADPH, 45 minutes, 37° C.; read-out: Half-life in liver microsomes (t1/2), Rat. As to the method:
as §1

In series [5] the test system is DOHH2 cells. Put plainly: DOHH2 proliferation assay (CellTiter-Glo, day 7). The format is cell-based. The note with it: Homo sapiens, DOHH-2, 168 h; viability by CellTiter-Glo on day 7. The procedure:
On day 1, 1000 DOHH2 cells were seeded to a 384-well TC plate (PerkinElmer #6007680) in 40 μL RPMI 1640 media, followed by the addition of CBP inhibitors except for column 13 where 3.3 μM staurosporine was added as negative control. DMSO was 0.1% in all the wells. The cells were lysed in and counted for viability by 40 μL CellTiter-Glo (Promega #G9243) on day 7. The luminescent signal was quantified by Envision Multilabel plate reader and the standard dose response curves were fitted by Genedata Screener software using the variable-slope model: Signal=Signalnegative control+(SignalDMSO control−Signalnegative control)/(1+(IC50/Dose)^Hill slope).
(§3) Only Signal and Dose in the equation were treated as known values.

Series [6] addresses T1, GST-CBP (1081-1197) bromodomain (Homo sapiens, UniProt Q92793).
T1 construct: The GST tagged bromodomains of CBP (1081-1197) and BRD4 (49-170) were obtained from BPS Bioscience; purchased BPS Bioscience
Put plainly: CBP AlphaScreen assay. The series is classed as binding. To be noted: biotin-H4 (1-21) Ac-K5/8/12/16 peptide. As to the method: (§4) Specific binding of the CBP or BRD4 bromodomain to the acetylated peptide derived from the H4 histone substrate (tetra acetylated H4 (1-21) Ac-K5/8/12/16) was measured in absence or presence of inhibitors. The GST tagged bromodomains of CBP (1081-1197) and BRD4 (49-170) were obtained from BPS Bioscience and binding to the biotinylated H4 (1-21) Ac-K5/8/12/16 (AnaSpec. 64989) was assessed via AlphaScreen technology (Perkin Elmer).
5 nM GST-CBP (1081-1197) and 20 nM biotin-H4 (1-21) Ac-K5/8/12/16 (AnaSpec. 64989) were incubated with varying concentrations of CBP inhibitors in 15 μL of buffer containing 50 mM HEPES 7.5, […], 1 mM TCEP, and 0.003% Tween-20. After 30 minutes incubation at room temperature, 15 μL of detection buffer (BPS Bio. 33006) containing 7 μg/mL of Glutathione AlphaLisa acceptor beads (Perkin Elmer AL109) and 14 μg/mL of Streptavidin donor beads (Perkin Elmer 676002) was then added to the previous mixture. The reaction was incubated for an additional 2 hours at room temperature, and the AlphaScreen signal was quantified using the Envision Multilabel plate reader. As negative control, GST-CBP (1081-1197) was incubated with the non-acetylated biotin-H4 (1-21) peptide (AnaSpec. 62555) and in presence of 0.25% of final DMSO concentration.
(§5) The binding of 2.5 nM of BRD4 (49-170) to 10 nM biotin-H4 (1-21) Ac-K5/8/12/16 (AnaSpec. 64989) was assessed following the same procedure described for the CBP assay. The standard dose response curves were fitted by Genedata Screener software using the variable-slope model: Signal=Signalnegative control+(SignalDMSO control−Signalnegative control)/(1+(IC50/Dose)^Hill slope).
as §3

The target in series [7] is T2, BRD4 (49-170) bromodomain (Homo sapiens, UniProt O60885).
T2 construct: The GST tagged bromodomains of CBP (1081-1197) and BRD4 (49-170) were obtained from BPS Bioscience; purchased BPS Bioscience
Put plainly: BRD4 AlphaScreen assay. The format is binding. To be noted: biotin-H4 (1-21) Ac-K5/8/12/16 peptide. The procedure: as §4, §5, §3

Series [8] can be described thus: In vivo pharmacokinetics after a single dose, dog. The note with it: male, plasma, Beagle dog. As to the method:
as §2
(§6) Dog: Male Beagle dogs (purchased from Beijing Marshall Biotechnology Co., Ltd) weighing 7-10 kg were used for studies. Animals were fasted overnight and fed 4 h postdose. Test article was administered to dogs via the cephalic vein (IV doses) or oral gavage (PO doses). Blood samples were collected via the saphenous vein or cephalic vein from all animals at predose and 0.083, 0.25, 0.5, 1, 2, 4, 8, and 24 h postdose into tubes containing the anticoagulant K2EDTA. Plasma was separated from the blood by centrifugation at 4° C. and stored at −70° C. until analysis. Test article concentrations in plasma were quantified using a liquid chromatography with tandem mass spectrometry (LC-MS/MS) method.

The nature of series [9]: Metabolic stability in monkey liver microsomes. The series is classed as in vitro ADME. The note with it: pH 7.4, read-out: Liver microsomal clearance (t1/2), Monkey. As to the method:
as §1

Series [10] in a line: In vivo pharmacokinetics after a single dose, rat. To be noted: male, plasma, Sprague-Dawley rat. The procedure:
as §2
Rat: Male rats (SD strain, purchased from Shanghai JH Laboratory Animal Co. LTD) weighing 200-300 g were used for studies. Animals were fasted overnight and fed 4 h postdose. Water was available ad libitum for all animals. Test article was dosed via dorsal foot vein (IV doses) or oral gavage (PO doses). Blood samples were collected via tail vein from all animals at predose and at 0.083, 0.25, 0.5, 1, 2, 4, 8, and 24 h postdose into tubes containing the anticoagulant K2EDTA. Plasma was separated from the blood by centrifugation at 4° C. and stored at −70° C. until analysis. Test article concentrations in plasma were quantified using a liquid chromatography with tandem mass spectrometry (LC-MS/MS) method.

Series [11] in a line: In vivo pharmacokinetics after a single dose, monkey. To be noted: male, plasma, Cynomolgus monkey. As to the method: as §2
as §6, with “Monkey:” for “Dog:”, “Cynomolgus monkeys” for “Beagle dogs”, “Hainan Jingang Biotech.” for “Beijing Marshall Biotechnology”, “3-5” for “7-10”, “monkeys” for “dogs”, “nasal” for “oral”

Series [12] in a line: Metabolic stability in dog liver microsomes. To be noted: pH 7.4, read-out: Liver microsomal clearance (t1/2), Dog. The format is in vitro ADME. The procedure:
as §1

The mark [13] stands for this setting: mouse, plasma, read-out: Clearance (converted).

Each structure is given as a SMILES string.

T1 sequence (Q92793 1081-1197): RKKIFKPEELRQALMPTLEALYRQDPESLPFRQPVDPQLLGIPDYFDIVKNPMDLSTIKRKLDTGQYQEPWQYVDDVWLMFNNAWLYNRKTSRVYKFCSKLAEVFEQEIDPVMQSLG

Turning to `CNC(=O)N1CCn2c(C3CCOCC3)nc(-c3cccc4cc(-c5cnc(C)s5)ncc34)c2C1` [Compound 4, reference compound], the values for the half-life at 1 μM in [1], in series [3] and in series [4] were 4.35 h, 86.7 h and 8.45 h, respectively. The half-life in series [2] (mouse, plasma) is 0.318 h. Also, in [2] (setting [13]), the clearance is 33.5 mL/min/kg. Moreover, the Vd in series [2] (mouse, plasma) was 0.822 L/kg. Besides, in [5], the IC50 amounted to 134 nM.
Take `CC(=O)N1CCn2c(C3CCOCC3)nc(-c3cccc4nc(-c5cnc(C)s5)c(C(F)F)cc34)c2C1` [Compound 2]: the 50% inhibitory concentration (IC50) in [6] is 2 nM; in [7], 1930 nM; in series [5] it was 215 nM.
For `CC(=O)N1CCn2c(C3CCOCC3)nc(-c3cccc4nc(-c5ccc(C)nc5)c(C(F)F)cc34)c2C1` [Compound 3, 1-(1-(3-(Difluoromethyl)-2-(6-methylpyridin-3-yl)quinolin-5-yl)-3-(tetrahydro-2H-pyran-4-yl)-5,6-dihydroimidazo[1,5-a]pyrazin-7(8H)-yl)ethan-1-one], in that order: 17 nM, 7430 nM and 198 nM.
Turning to `CNC(=O)N1CCn2c(C3CCOCC3)nc(-c3cccc4nc(-c5cnc(C)s5)c(C(F)F)cc34)c2C1` [Compound 1, 1-(3-(difluoromethyl)-2-(2-methylthiazol-5-yl)quinolin-5-yl)-N-methyl-3-(tetrahydro-2H-pyran-4-yl)-5,6-dihydroimidazo[1,5-a]pyrazine-7(8H)-carboxamide], the clearance was 6.72 mL/min/kg in series [8] (1 mg/kg IV); “dramatic decrease” in series [2]; 3.28 mL/min/kg in series [2] (setting [13]); 8.92 mL/min/kg in series [10] (1 mg/kg IV); 12.3 mL/min/kg in series [11] (1 mg/kg IV). Also, the half-life in series [8] (1 mg/kg IV) was 3.42 h; in series [2] (mouse, plasma) it was 4.47 h; in series [10] (1 mg/kg IV), 2.99 h; in series [11] (1 mg/kg IV), 1.65 h. In addition, the Vd in series [8] (1 mg/kg IV, read-out: Vss) amounted to 1.57 L/kg; in series [2] (mouse, plasma), 0.342 L/kg; in series [10] (1 mg/kg IV, read-out: Vss) it was 0.908 L/kg; in series [11] (1 mg/kg IV, read-out: Vss) it was 1.06 L/kg. Also, the AUC(0-t) in [8] (3 mg/kg PO) stood at 10.8 µM·h; in series [10] (3 mg/kg PO), 2.63 µM·h; in [11] (3 mg/kg PO), 2.49 µM·h. The results for the Cmax in [8] (3 mg/kg PO), in [10] (3 mg/kg PO) and in series [11] (3 mg/kg PO) were 1870 nM, 1350 nM and 773 nM, respectively. Moreover, the bioavailability was determined as 78.9% in series [8] (3 mg/kg PO), 25.2% in series [10] (3 mg/kg PO) and 28.2% in series [11] (3 mg/kg PO). Also, the half-life at 1 μM in series [1] turned out to be 3.97 h; in series [3], 69.8 h; in series [9], 0.383 h; in [4], 3.22 h; in series [12], 1.05 h. Further, in [2], the t1/2 result is given as “increase”. Moreover, the figures for the IC50 in series [6], in series [7] and in series [5] were 3 nM, 4790 nM and 29 nM, respectively.
